# Measured values from patent publication US7691876B2, “Heterobicyclic amide compounds” (Hoffmann-La Roche Inc., priority 2006, dated 2010).
# Molecular target: T1, cholesteryl ester transfer protein (CETP) (Homo sapiens, UniProt P11597)
# T1 construct: the source of CETP was human lipoprotein-deprived serum (LPDS); from tissue; host or cells: human lipoprotein-deprived serum (LPDS)
# T1 sequence (P11597 18-493): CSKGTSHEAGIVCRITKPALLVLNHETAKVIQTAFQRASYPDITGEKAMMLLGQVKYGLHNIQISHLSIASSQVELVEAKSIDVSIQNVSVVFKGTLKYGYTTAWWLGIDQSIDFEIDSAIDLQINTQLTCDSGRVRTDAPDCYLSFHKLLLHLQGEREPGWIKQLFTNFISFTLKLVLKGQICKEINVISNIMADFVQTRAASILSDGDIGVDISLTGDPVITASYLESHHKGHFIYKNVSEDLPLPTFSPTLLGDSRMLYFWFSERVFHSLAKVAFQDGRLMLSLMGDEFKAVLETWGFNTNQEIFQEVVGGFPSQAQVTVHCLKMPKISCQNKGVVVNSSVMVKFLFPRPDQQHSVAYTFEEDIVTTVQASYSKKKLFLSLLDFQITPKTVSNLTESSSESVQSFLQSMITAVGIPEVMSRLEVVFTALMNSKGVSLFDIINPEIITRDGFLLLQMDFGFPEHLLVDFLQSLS
# Test: CETP activity SPA assay in the presence of plasma (human lipoprotein-deprived serum as source of CETP)
# Format: biochemical
# Settings: source of CETP was human lipoprotein-deprived serum (LPDS), transfer of radiolabeled cholesteryl ester from HDL donor to biotin-labeled LDL acceptor particles
# Protocol: Activity of CETP inhibitors was determined using a buffer assay system. Partially purified CETP transferred radiolabeled cholesteryl ester from HDL donor particles to biotin-labeled LDL acceptor particles. The reaction was stopped by addition of streptavidin-coupled scintillation proximity assay (SPA) beads. These beads captured the biotinylated acceptor particles and transferred radioactivity was measured. The assay system was purchased and performed according to manufacturer's recommendations (Amersham Biosciences). Inhibitory activity of compounds was determined as percentage of positive control activity containing CETP together with donor and acceptor particles. Serial dilution of compounds was performed in order to determine the IC50 values.
# Activity of the compounds was subsequently measured in the presence of plasma using the same assay as described above except that the source of CETP was human lipoprotein-deprived serum (LPDS). Inhibitory activity of compounds was determined as percentage of positive control activity containing all the assay components except compound. Serial dilution of compounds was performed in order to determine the IC50 values.
row,IC50,SMILES
1,437 nM,"CC(C)(C)c1ccc(CN(CCc2ccc(F)cc2)C(=O)c2ncc(F)c3cc[nH]c23)cc1 [Compound 3.15, 4-fluoro-1H-pyrrolo[2,3-c]pyridine-7-carboxylic acid (4-tert-butyl-benzyl)-[2-(4-fluoro-phenyl)-ethyl]-amide]"
2,175 nM,"CC(C)(C)c1ccc(CN(CCc2cccc(C(F)(F)F)c2)C(=O)c2nc(Cl)cc3cc[nH]c23)cc1 [Compound 3.22, 5-chloro-1H-pyrrolo[2,3-c]pyridine-7-carboxylic acid (4-tert-butyl-benzyl)-[2-(3-trifluoromethyl-phenyl)-ethyl]-amide]"
3,141 nM,"Cc1cc2cc[nH]c2c(C(=O)N(CCc2ccc(Cl)c(Cl)c2)Cc2ccc(C(C)(C)C)cc2)n1 [Compound 3.14, 5-methyl-1H-pyrrolo[2,3-c]pyridine-7-carboxylic acid (4-tert-butyl-benzyl)-[2-(3,4-dichloro-phenyl)-ethyl]-amide]"
